Key:
Assay type in all cases: biochemical
[1] = target: T1, Abl (Homo sapiens, UniProt P00519); test: AlphaScreen kinase assay, Abl; details: read-out: activity toward kinase Abl, IC50
T1 construct: P1121. pET-SPEC BI-PTP Abl G227-V515-X; His6 (N); made in house; host or cells: E. coli (PTP1B co-expressed)
T1 sequence (P00519 with tags, fused parts or gaps): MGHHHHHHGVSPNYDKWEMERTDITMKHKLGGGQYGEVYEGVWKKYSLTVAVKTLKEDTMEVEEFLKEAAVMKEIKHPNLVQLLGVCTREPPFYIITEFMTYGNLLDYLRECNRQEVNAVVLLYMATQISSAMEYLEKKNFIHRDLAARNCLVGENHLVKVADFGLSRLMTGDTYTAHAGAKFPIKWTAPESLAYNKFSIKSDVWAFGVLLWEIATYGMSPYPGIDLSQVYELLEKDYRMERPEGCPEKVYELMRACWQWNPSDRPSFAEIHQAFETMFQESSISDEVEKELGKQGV
Source text: AlphaScreen assay was used to screen additional kinases. The assay is similarly dependent on the phosphorylation of a peptide substrate. In this assay, an antibody that recognizes phosphorylated substrate is bound to an acceptor bead. The peptide substrate is attached to biotin, which binds to a donor head that contains streptavidin. Thus phosphorylated substrate is bound by antibody and streptavidin, bringing the donor and acceptor heads into close proximity when kinase is not inhibited. The donor produces singlet oxygen which results in emission from the acceptor when they are in close proximity. Conversely, when kinase is inhibited, the donor and acceptor beads are not associated and the emission from the acceptor is reduced.
AlphaScreen assays were done using compounds dissolved in DMSO to a concentration of 20 mM. The compounds were diluted accordingly to the desired final concentrations in each sample well, using 1:3 serial dilution for a total of 8 concentration points.

[2] = target: T2, Fak (Homo sapiens, UniProt Q05397); test: AlphaScreen kinase assay, Fak; details: read-out: IC50, activity toward kinase Fak
T2 construct: P1358.pFastBacHtb FAK S411-Q686-X; His6 with pFastBacHTb leader (TEV site) (N); made in house; host or cells: Sf9 (baculovirus)
Description: AlphaScreen assays were done using compounds dissolved in DMSO to a concentration of 20 mM. The compounds were diluted accordingly to the desired final concentrations in each sample well, using 1:3 serial dilution for a total of 8 concentration points. Plates were prepared such that each kinase reaction is 20 μl in 1× kinase buffer, 5% DMSO and 10 μM ATP. After incubation of the kinase reaction for 1 hour at room temperature, 5 μl of donor beads in stop buffer (50 mM EDTA in 1× kinase buffer) was added, the sample was mixed and incubated for 20 minutes at room temperature before adding 5 μl of acceptor beads in stop buffer. The samples were incubated for 60 minutes at room temperature and the signal per well was read on AlphaQuest reader.

[3] = target: T3, Jnk3 (Homo sapiens, UniProt P53779); test: AlphaScreen kinase assay, Jnk3; details: read-out: IC50, activity toward kinase Jnk3
T3 construct: purchased Upstate Biotechnology

[4] = target: T4, Met (Homo sapiens, UniProt P08581); test: AlphaScreen kinase assay, Met; details: read-out: IC50, activity toward kinase Met
T4 construct: P1818.pETN6 BI-PTP MET G1056-G1364-X WT; His6 (N); made in house; host or cells: E. coli (PTP1B co-expressed)
Summary of the method: (§1)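 Stock 20 mM compound in DMSO, diluted 1:3 serially to 8 final concentrations. Kinase phosphorylates biotinylated peptide; donor (streptavidin) and acceptor (anti-phospho antibody) beads then associate. Reduced acceptor emission indicates inhibition.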

[5] = target: T5, Ret (Homo sapiens, UniProt P07949); test: AlphaScreen kinase assay, Ret; details: read-out: IC50, activity toward kinase Ret
T5 construct: P1378.pET-SF BI-PTP RET H661-R1012 HIS; made in house
T5 sequence (P07949 with tags, fused parts or gaps): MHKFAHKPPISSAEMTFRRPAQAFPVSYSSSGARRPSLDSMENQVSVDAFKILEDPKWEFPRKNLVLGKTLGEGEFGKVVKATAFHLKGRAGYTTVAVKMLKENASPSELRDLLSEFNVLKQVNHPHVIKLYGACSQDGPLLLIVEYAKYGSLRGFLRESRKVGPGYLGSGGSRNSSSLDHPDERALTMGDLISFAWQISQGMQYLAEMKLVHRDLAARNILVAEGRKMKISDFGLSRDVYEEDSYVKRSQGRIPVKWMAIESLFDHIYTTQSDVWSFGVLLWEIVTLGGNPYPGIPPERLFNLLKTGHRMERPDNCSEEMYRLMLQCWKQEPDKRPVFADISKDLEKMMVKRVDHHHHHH

[6] = target: T6, Zap70 (Homo sapiens, UniProt P43403); test: AlphaScreen kinase assay, Zap70; details: read-out: IC50, activity toward kinase Zap70
T6 construct: P1868.pFastBac1 ZAP70 D327-G606 HIS, WT; His7 (HHHHHHH) (C); made in house
T6 sequence (P43403 with tags, fused parts or gaps): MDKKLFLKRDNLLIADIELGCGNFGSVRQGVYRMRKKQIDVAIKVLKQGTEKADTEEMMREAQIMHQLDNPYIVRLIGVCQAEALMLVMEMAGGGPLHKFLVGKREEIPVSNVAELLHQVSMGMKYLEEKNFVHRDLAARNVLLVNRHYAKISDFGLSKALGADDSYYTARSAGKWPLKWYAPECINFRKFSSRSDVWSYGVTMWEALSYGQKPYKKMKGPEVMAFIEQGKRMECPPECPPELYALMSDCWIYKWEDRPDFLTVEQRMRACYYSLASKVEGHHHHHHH
Summary of the method: as §1

[7] = target: T7, B-Raf V600E (Homo sapiens, UniProt P15056, V600E); test: AlphaScreen kinase assay, B-Raf V600E; details: read-out: IC50, activity toward kinase B-Raf V600E
T7 construct: P4254. pFastBacBD-CDC37 BRAF D437-K722-X, V600E; His6 with pFastBac HT leader (TEV site) (N); made in house; host or cells: Sf9 (baculovirus; chaperone CDC37 co-expressed)

[8] = target: T8, FGFR1 (Homo sapiens, UniProt P11362, C488A/C584S); test: AlphaScreen kinase assay, FGFR1; details: read-out: IC50, activity toward kinase FGFR
T8 construct: P1351.pET N6 BI-PTP FGFR A458-E765-X C488A, C584S; made in house; host or cells: E. coli (PTP1B co-expressed)

[9] = target: T9, Flt1 (Homo sapiens, UniProt P17948); test: AlphaScreen kinase assay, Flt1; details: read-out: IC50, activity toward kinase Flt1
T9 construct: P1826.pETN6 BI-PTP FLT1 M799-D1165-X WT; His6 (N); made in house; host or cells: E. coli (PTP1B co-expressed)
T9 sequence (P17948 with tags, fused parts or gaps): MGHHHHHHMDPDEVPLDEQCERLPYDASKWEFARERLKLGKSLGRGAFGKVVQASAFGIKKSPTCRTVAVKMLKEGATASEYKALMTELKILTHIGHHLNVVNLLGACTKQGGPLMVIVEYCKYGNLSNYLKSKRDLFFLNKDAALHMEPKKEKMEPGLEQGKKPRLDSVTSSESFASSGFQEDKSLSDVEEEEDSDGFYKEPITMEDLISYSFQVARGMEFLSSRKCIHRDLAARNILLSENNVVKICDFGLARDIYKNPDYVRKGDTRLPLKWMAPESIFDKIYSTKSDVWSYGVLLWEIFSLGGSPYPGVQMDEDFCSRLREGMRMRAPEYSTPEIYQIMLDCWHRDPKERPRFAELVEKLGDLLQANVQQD

[10] = target: T10, Kdr (Homo sapiens, UniProt P35968); test: Z'-Lyte FRET kinase assay (Invitrogen), Kdr; details: read-out: IC50, activity toward kinase Kdr
T10 construct: purchased Invitrogen (assay run by Invitrogen)

[11] = target: T11, Pyk2 (Homo sapiens, UniProt Q14289); test: AlphaScreen kinase assay, Pyk2; details: read-out: IC50, activity toward kinase Pyk2
T11 construct: purchased Upstate Biotechnology

[12] = target: T12, Src (Homo sapiens, UniProt P12931); test: AlphaScreen kinase assay, Src; details: read-out: IC50, activity toward kinase Src
T12 construct: P1144. pET-N6 BI-PTP SRC V86-L536-X; made in house

Measured: IC50

T4 sequence (P08581 with tags, fused parts or gaps): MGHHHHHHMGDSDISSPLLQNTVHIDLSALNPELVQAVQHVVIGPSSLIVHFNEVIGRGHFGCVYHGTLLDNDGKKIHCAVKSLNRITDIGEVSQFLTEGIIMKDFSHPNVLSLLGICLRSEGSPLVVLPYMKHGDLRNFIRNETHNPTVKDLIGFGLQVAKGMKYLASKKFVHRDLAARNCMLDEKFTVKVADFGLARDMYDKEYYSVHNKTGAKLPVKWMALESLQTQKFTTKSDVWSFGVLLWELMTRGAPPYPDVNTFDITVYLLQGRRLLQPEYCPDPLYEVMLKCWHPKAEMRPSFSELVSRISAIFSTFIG
T3 sequence (P53779 whole entry): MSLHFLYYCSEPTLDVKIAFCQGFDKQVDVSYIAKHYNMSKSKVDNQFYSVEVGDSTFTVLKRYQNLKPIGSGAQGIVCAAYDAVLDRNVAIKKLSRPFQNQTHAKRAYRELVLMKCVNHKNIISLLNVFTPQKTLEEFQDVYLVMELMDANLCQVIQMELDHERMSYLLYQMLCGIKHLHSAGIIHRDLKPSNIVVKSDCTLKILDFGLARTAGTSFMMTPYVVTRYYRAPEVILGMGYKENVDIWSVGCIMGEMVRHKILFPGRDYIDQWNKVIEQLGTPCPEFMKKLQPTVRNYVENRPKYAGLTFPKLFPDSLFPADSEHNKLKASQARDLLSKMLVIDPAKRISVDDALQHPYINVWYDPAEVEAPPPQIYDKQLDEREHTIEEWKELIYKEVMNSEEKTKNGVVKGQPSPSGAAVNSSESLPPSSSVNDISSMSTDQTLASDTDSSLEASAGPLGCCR
T2 sequence (Q05397 411-686): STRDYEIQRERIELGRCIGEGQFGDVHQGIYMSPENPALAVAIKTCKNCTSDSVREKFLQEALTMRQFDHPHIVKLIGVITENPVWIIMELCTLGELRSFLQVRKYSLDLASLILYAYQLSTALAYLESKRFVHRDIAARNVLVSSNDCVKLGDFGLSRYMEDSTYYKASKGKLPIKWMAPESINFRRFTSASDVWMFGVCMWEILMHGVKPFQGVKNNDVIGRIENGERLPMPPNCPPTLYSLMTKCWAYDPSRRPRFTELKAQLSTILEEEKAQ
T7 sequence (P15056 with tags, fused parts or gaps V600E): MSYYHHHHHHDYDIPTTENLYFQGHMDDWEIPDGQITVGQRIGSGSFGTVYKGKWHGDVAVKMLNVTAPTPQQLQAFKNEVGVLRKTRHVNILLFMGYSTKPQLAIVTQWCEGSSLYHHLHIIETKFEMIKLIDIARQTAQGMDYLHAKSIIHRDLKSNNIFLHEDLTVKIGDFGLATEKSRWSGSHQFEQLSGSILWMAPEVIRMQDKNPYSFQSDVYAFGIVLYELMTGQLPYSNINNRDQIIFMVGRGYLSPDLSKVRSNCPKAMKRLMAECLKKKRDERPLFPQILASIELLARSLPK
T10 sequence (P35968 20-1356): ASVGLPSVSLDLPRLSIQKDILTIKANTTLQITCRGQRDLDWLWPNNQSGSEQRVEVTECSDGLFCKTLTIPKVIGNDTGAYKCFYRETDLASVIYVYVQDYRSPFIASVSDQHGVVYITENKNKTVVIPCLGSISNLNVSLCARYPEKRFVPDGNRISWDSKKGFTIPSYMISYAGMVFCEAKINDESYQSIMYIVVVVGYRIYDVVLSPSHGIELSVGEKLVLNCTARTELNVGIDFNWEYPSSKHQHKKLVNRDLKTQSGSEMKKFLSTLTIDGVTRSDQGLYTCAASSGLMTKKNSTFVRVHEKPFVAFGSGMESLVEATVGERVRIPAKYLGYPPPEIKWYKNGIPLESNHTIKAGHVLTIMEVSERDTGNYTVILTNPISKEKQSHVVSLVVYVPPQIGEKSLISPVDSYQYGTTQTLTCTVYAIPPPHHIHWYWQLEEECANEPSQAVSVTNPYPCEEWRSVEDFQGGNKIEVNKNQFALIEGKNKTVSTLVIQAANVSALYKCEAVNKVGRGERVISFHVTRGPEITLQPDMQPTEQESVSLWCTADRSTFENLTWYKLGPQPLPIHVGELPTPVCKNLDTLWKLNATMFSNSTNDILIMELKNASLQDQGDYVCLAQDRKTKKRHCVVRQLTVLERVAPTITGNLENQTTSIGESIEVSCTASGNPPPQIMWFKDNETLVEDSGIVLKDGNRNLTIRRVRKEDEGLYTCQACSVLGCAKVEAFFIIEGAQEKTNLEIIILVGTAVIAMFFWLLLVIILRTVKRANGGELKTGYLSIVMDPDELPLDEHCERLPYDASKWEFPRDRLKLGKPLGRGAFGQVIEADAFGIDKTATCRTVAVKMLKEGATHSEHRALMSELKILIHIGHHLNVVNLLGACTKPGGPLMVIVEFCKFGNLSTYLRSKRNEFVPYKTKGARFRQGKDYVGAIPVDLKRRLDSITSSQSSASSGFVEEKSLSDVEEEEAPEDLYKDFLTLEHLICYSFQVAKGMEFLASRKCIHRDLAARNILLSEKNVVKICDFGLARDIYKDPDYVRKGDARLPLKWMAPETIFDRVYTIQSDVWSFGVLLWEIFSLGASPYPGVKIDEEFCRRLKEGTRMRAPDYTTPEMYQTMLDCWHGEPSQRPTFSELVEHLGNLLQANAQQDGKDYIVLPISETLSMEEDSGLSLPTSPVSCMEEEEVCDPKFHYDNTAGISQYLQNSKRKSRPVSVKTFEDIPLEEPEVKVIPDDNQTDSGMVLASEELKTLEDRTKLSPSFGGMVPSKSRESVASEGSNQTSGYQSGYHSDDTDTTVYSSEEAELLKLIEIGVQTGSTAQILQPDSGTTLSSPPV
T8 sequence (P11362 458-765 C488A/C584S): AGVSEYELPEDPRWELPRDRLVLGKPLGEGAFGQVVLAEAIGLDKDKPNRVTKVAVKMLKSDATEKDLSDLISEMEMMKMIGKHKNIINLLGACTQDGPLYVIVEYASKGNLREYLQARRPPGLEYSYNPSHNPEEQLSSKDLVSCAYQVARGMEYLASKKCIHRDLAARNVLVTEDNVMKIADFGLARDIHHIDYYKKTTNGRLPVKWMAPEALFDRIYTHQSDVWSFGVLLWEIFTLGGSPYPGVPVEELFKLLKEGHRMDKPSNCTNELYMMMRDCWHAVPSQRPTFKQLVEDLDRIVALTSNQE
T12 sequence (P12931 with tags, fused parts or gaps): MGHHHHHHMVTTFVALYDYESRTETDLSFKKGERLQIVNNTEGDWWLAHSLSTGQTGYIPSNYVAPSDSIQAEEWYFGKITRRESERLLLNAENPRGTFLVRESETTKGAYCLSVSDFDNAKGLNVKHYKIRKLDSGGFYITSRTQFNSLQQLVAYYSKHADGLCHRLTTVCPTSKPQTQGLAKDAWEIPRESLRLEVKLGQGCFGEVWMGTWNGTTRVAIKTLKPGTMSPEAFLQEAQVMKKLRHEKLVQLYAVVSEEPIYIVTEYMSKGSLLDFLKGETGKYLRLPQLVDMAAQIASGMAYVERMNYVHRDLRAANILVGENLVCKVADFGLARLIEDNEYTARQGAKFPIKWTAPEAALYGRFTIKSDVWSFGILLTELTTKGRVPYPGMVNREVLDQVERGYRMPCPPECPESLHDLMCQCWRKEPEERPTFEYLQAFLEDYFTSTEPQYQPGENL
T11 sequence (Q14289 whole entry): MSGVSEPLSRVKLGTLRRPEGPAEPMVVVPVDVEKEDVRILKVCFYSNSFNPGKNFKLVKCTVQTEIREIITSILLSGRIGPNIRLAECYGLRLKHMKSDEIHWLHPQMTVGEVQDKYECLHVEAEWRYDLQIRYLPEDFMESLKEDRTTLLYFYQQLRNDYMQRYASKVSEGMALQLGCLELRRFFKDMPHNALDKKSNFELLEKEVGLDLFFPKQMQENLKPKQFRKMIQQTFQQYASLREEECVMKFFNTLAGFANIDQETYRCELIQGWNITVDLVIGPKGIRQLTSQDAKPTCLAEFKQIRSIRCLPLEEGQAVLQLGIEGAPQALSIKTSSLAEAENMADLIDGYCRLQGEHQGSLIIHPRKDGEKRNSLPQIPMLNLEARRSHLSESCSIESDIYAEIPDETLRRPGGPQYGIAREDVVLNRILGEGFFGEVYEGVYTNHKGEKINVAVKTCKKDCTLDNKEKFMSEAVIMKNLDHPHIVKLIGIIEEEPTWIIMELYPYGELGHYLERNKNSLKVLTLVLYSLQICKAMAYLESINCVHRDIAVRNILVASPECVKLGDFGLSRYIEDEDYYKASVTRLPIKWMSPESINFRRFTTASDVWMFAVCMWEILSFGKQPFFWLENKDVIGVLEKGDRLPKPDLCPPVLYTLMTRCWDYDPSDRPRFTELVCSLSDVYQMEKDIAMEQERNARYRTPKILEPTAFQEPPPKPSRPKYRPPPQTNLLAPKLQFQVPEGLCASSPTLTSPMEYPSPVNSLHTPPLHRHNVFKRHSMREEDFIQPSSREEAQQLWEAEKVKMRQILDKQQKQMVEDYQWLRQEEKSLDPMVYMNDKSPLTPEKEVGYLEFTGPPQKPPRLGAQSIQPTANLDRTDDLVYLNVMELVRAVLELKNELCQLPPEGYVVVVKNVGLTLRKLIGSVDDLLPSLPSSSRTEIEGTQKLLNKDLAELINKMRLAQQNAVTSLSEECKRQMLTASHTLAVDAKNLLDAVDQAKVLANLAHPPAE

CS(=O)(=O)CCNC(=O)c1ccc(S(=O)(=O)NCc2c[nH]c3ncccc23)cc1 [Compound P-0675]
≤ 10 µM: [1] | [2] | [3] | [4] | [5] | [6]

O=S(=O)(NCc1c[nH]c2ncccc12)c1ccsc1 [Compound P-0320]
not listed: [2]
≤ 10 µM: all other assays above

Source: US8415469B2, “Compounds and methods for kinase modulation, and indications therefor” (Plexxikon Inc., priority 2005, dated 2013)
